In ChEMBL document CHEMBL1127285, “N-alkyl quinuclidinium substance P antagonists” (Bioorg Med Chem Lett, 1994):
pIC50: −log10 of the molar value.

Each compound was assayed against Substance-P receptor (Homo sapiens, UniProt P25103) (assay: Compound was tested in vitro for its Tachykinin receptor 1 affinity by the displacement of [125I]Bolton-Hunter substance p from human IM-9 cells).
Type: cell-based

Chain of Substance-P receptor (P25103 whole entry): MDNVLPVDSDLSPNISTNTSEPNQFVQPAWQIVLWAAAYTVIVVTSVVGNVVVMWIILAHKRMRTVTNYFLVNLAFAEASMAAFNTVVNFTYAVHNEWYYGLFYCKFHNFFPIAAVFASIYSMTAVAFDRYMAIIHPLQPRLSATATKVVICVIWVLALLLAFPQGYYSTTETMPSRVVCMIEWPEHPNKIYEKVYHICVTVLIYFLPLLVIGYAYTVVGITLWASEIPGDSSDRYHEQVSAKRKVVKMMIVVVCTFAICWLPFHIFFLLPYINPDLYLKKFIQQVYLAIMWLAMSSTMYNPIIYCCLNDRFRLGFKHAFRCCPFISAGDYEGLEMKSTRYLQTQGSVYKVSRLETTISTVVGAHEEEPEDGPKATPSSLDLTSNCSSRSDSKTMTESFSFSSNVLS

Point of comparison: C=CC[N+]12CCC(CC1)[C@H](NCc1ccccc1OC)[C@@H]2C(c1ccccc1)c1ccccc1, pIC50 7.65. Against it:
- COc1ccccc1CN[C@H]1C2CC[N+](C)(CC2)[C@H]1C(c1ccccc1)c1ccccc1 — 0.26 log units higher, 7.91
- COc1ccccc1CN[C@H]1C2CC[N+](CC(N)=O)(CC2)[C@H]1C(c1ccccc1)c1ccccc1 — 1.24 log units higher, 8.89
- CCOC(=O)C[N+]12CCC(CC1)[C@H](NCc1ccccc1OC)[C@@H]2C(c1ccccc1)c1ccccc1 — within 0.2 log units, 7.49
- COc1ccccc1CN[C@H]1C2CC[N+](Cc3ccccc3)(CC2)[C@H]1C(c1ccccc1)c1ccccc1 — 1.17 log units lower, 6.48
